Experimental data reported in EP4678638A1, “NEW E3 UBIQUITIN LIGASE LIGAND, PROTEIN DEGRADATION AGENT AND USE THEREOF” (priority 2023, dated 2024).

Key:
[1] = target: T1, human Cereblon WT GST-tagged protein (Homo sapiens, UniProt Q96SW2); test: CRBN binding, HTRF (CEREBLON BINDING kit); conditions: Table II-2, CRBN binding screening, HTRF; for inhibition at 0.5 µM: read-out: Inhibition rate (%) at 0.5µM; for inhibition at 2 µM: read-out: Inhibition rate (%) at 2 µM
T1 construct: purchased CISBIO 64BDCRBNPEH
T1 sequence (Q96SW2 whole entry): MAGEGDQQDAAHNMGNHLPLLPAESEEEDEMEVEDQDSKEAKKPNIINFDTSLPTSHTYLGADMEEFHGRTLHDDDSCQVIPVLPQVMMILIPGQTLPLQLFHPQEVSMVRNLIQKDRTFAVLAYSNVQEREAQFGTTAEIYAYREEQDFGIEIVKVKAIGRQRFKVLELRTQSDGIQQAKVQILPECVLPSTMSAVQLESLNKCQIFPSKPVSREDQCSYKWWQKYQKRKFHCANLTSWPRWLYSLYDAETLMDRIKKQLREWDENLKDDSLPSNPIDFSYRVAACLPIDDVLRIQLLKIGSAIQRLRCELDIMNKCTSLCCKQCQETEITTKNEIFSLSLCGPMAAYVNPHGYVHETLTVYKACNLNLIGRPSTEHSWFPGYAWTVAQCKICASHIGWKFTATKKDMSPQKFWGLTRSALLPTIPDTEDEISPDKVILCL
In short: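 Competitive HTRF: GST-tagged human WT Cereblon mixed with compound, Thalidomide-Re tracer and GST Eu antibody, incubated 3 h at room temperature. Signals read at 620 and 665 nm.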

IRAK4 = target: T2, IRAK4 (Homo sapiens, UniProt Q9NWZ3); test: Western blot degradation of IRAK4 (hPBMC); type: cell-based; conditions: Table D1
T2 construct: evaluate the effects of the compounds of the present disclosure on the expression of target proteins in cells; endogenous in cells; host or cells: hPBMC
T2 sequence (Q9NWZ3 1-460): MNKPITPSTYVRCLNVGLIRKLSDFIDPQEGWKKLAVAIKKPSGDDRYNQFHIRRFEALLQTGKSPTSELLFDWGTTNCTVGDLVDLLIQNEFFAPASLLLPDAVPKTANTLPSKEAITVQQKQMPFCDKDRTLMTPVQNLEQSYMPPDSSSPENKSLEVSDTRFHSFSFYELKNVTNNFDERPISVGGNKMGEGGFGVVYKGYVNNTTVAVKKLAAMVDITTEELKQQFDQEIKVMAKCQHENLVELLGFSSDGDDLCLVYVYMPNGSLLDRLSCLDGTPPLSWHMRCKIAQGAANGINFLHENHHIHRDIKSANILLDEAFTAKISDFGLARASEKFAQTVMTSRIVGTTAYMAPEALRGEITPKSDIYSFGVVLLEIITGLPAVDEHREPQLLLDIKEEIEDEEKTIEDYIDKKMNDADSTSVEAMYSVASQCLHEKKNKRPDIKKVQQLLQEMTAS
In short: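 Degradation is assessed by immunoblotting lysates of treated cells. Target bands are quantified by grayscale and normalised to an internal control, so degradation rate equals 100% minus % remaining.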

| SMILES | inhibition at 0.5 µM [1] [%] | inhibition at 2 µM [1] [%] | Degradation of substrate protein IRAK4 (substrate protein remaining %) (IRAK4) |
| --- | --- | --- | --- |
| CC(C)Nc1cc(-n2ccc3cc(C#N)cnc32)ncc1C(=O)NC1CCN(Cc2cc(C3CCC(=O)NC3=O)cnc2F)CC1 (stereo not drawn) [GT-07544, 6-(5-cyano-1H-pyrrolo[2,3-b]pyridin-1-yl)-N-(1-((5-(2,6-dioxopiperidin-3-yl)-2-fluoropyridin-3-yl)methyl)piperidin-4-yl)-4-(isopropylamino)nicotinamide] | 53 to 60 | 80 to 100 | A (A is defined as 0% ≤ substrate protein remaining % ≤ 80%) |
| CC(C)(O)c1cc2nc(C3CCN(Cc4ccc(C5CCC(=O)NC5=O)cn4)CC3)oc2cc1NC(=O)c1cccc(C(F)(F)F)n1 (stereo not drawn) [GT-07763, N-(2-(1-((5-(2,6-dioxopiperidin-3-yl)pyridin-2-yl)methyl)piperidin-4-yl)-5-(2-hydroxypropan-2-yl)benzo[d]oxazol-6-yl)-6-(trifluoromethyl)picolinamide] | 40 to 53 | 60 to 80 | A (A is defined as 0% ≤ substrate protein remaining % ≤ 80%) |
| COc1cc2nn(C3CCN(Cc4cncc(C5CCC(=O)NC5=O)c4)CC3)cc2cc1NC(=O)c1cccc(C(F)(F)F)c1 (stereo not drawn) [GT-07419, N-(2-(1-((5-(2,6-dioxopiperidin-3-yl)pyridin-3-yl)methyl)piperidin-4-yl)-6-methoxy-2H-indazol-5-yl)-3-(trifluoromethyl)benzamide] | 20 to 30 | 53 to 60 | A (A is defined as 0% ≤ substrate protein remaining % ≤ 80%) |
| CC(C)(O)c1cc2nc(C3CCN(Cc4cncc(C5CCC(=O)NC5=O)c4)CC3)sc2cc1NC(=O)c1cccc(C(F)(F)F)n1 (stereo not drawn) [GT-07624, N-(2-(1-((5-(2,6-dioxopiperidin-3-yl)pyridin-3-yl)methyl)piperidin-4-yl)-5-(2-hydroxypropan-2-yl)benzo[d]thiazol-6-yl)-6-(trifluoromethyl)picolinamide] | 20 to 30 | 60 to 80 | A (A is defined as 0% ≤ substrate protein remaining % ≤ 80%) |
| CC(C)(O)c1cc2nc(C3CCN(Cc4cc(N5CCC(=O)NC5=O)ncc4F)CC3)oc2cc1NC(=O)c1cccc(C(F)(F)F)n1 [GT-07626, N-(2-(1-((2-(2,4-dioxotetrahydropyrimidin-1(2H)-yl)-5-fluoropyridin-4-yl)methyl)piperidin-4-yl)-5-(2-hydroxypropan-2-yl)benzo[d]oxazol-6-yl)-6-(trifluoromethyl)picolinamide] | 20 to 30 | 60 to 80 | A (A is defined as 0% ≤ substrate protein remaining % ≤ 80%) |
| CC(C)(O)c1cc2nn(C3CCN(Cc4cncc(C5CCC(=O)NC5=O)c4)CC3)cc2cc1NC(=O)c1cccc(C(F)(F)F)n1 (stereo not drawn) [GT-07543, N-(2-(1-((5-(2,6-dioxopiperidin-3-yl)pyridin-3-yl)methyl)piperidin-4-yl)-6-(2-hydroxypropan-2-yl)-2H-indazol-5-yl)-6-(trifluoromethyl)picolinamide] | 30 to 40 | 60 to 80 | A (A is defined as 0% ≤ substrate protein remaining % ≤ 80%) |
| COc1cc2nn(C3CCN(Cc4cc(C5CCC(=O)NC5=O)cnc4F)CC3)cc2cc1NC(=O)c1cccc(C(F)(F)F)n1 (stereo not drawn) [GT-07549, N-(2-(1-((5-(2,6-dioxopiperidin-3-yl)-2-fluoropyridin-3-yl)methyl)piperidin-4-yl)-6-methoxy-2H-indazol-5-yl)-6-(trifluoromethyl)picolinamide] | 40 to 53 | 80 to 100 | A (A is defined as 0% ≤ substrate protein remaining % ≤ 80%) |
